In US8133849B2, “Herbicidal compounds” (Syngenta Limited, priority 2007, dated 2012):

Legend:
Assay type in all cases: in vivo
Amaranthus retroflexus = assay: Example B1 herbicidal action, post-emergence, seed trays in climatic chamber, damage score 0-10; conditions: 1000 g/ha, evaluated after 9 days, 10=total damage to plant, 0=no damage to plant
Protocol: (§1) Seeds of a variety of test species were sown in sterilized standard soil in seed trays each having 96 cells. After cultivation for 8 to 9 days cultivation (post-emergence) under controlled conditions in a climatic chamber (cultivation at 23/17° C., day/night; 13 hours light; 50-60% humidity), the plants were treated with an aqueous spray solution of 1000 mg/l of the active ingredient dissolved in 10% DMSO (dimethyl sulfoxide, CAS RN 67-68-5) as a solvent, equivalent to 1000 g/ha. The plants were grown in the climatic chamber after application at (24/19° C., day/night; 13 hours light; 50-60% humidity) and watered twice daily. After 9 days until the test was evaluated (10=total damage to plant, 0=no damage to plant)

Solanum nigrum = assay: as above; conditions: 1000 g/ha, evaluated after 9 days, 10=total damage to plant, 0=no damage to plant
Protocol: as §1

Nasturtium officinale = assay: as above; conditions: 1000 g/ha, evaluated after 9 days, 10=total damage to plant, 0=no damage to plant
Protocol: as §1

Stellaria media = assay: as above; conditions: 1000 g/ha, evaluated after 9 days, 10=total damage to plant, 0=no damage to plant
Protocol: as §1

test plants [1] = assay: Example B1 herbicidal action, post-emergence, all test species together; conditions: Example B1 protocol, 1000 g/ha, after 9 days, result in words
Protocol: as §1

test plants [2] = assay: Example B2 herbicidal action, post-emergence, pots in glasshouse, damage score 0-10 (10=total damage to plant; 0=no damage to plant); conditions: Example B2 protocol, after 13 days, result in words
Protocol: Seeds of a variety of test species were sown in standard soil in pots. After 8 days cultivation (post-emergence) under controlled conditions in a glasshouse (at 24/16° C., day/night; 14 hours light; 65% humidity), the plants were sprayed with an aqueous spray solution derived from the formulation of the technical active ingredient in acetone/water (50:50) solution containing 0.5% Tween 20 (polyoxyethelyene sorbitan monolaurate, CAS RN 9005-64-5). The test plants were then grown in a glasshouse under controlled conditions in a glasshouse (at 24/16° C., day/night; 14 hours light; 65% humidity) and watered twice daily. After 13 days, the test was evaluated (10=total damage to plant; 0=no damage to plant).

Alopecurus myosuroides = assay: Example B3 herbicidal action, post-emergence, small pots in glasshouse, damage score 0-10; conditions: 1000 g/ha, evaluated after 13 days, 10=total damage to plant, 0=no damage to plant
Protocol: (§2) Seeds of a variety of test species were sown in sterilized compost in small pots. After cultivation for seven days (post-emergence) in controlled conditions in the glasshouse (at 24/16° C., day/night; 14 hours light; 65% humidity) the plants were sprayed with 1 mg of the active ingredient, formulated in 2.5 ml acetone/water (50:50) solution, which is equivalent to 1000 g/ha. Once the foliage was dry, the pots were kept in the glasshouse (at 24/16° C., day/night; 14 hours light; 65% humidity), and were watered twice daily. After 13 days the test was evaluated (10=total damage to plant, 0=no damage to plant).

Chenopodium album = assay: as above; conditions: 1000 g/ha, evaluated after 13 days, 10=total damage to plant, 0=no damage to plant
Protocol: as §2

Row | Structure (SMILES) | damage to plant, AMARE (Amaranthus retroflexus) | damage to plant, SOLNI (Solanum nigrum) | damage to plant, NAAOF (Nasturtium officinale) | damage to plant, STEME (Stellaria media) | damage to the test plants (test plants [1]) | damage to the test plants (test plants [2]) | damage to plant, ALOMY (Alopecurus myosuroides) | damage to plant, CHEAL (Chenopodium album)
1 | COC1=C(c2cc3ccccc3nc2Cl)S(=O)(=O)N(C)c2nccnc21 [Compound C40] | 0 | 0 | 0 | 1 |  |  |  | 
2 | CN1c2nccnc2C(OC(=O)C(C)(C)C)=C(c2cc3ccccc3nc2Cl)S1(=O)=O [Compound C41] | 0 | 0 | 8 | 4 |  |  |  | 
3 | CN1c2nccnc2C(OC(=O)C2CC2)=C(c2ccc(Cl)cc2Cl)S1(=O)=O [Compound C1] | 0 | 3 | 4 | 6 |  |  |  | 
4 | CC(C)C(=O)OC1=C(c2ccc(Cl)cc2Cl)S(=O)(=O)Nc2nccnc21 [Compound B2] |  |  |  |  | little or no damage |  |  | 
5 | CCN1c2nccnc2C(OC(=O)C(C)(C)C)=C(c2c(F)ccc(F)c2Cl)S1(=O)=O [Compound C7] | 3 | 7 | 8 | 8 |  |  |  | 
6 | COC1=C(c2ccc(Cl)cc2Cl)S(=O)(=O)N(C)c2nccnc21 [Compound C3, 3-(2,4-dichloro-phenyl)-4-methoxy-1-methyl-1H-2-thia-1,5,8-triazanaphthalen-2,2-dioxide] | 1 | 3 | 2 | 2 |  |  |  | 
7 | CCN1c2nccnc2C(OC(=O)C(C)(C)C)=C(c2ccc(Cl)c(Cl)c2)S1(=O)=O [Compound C10] |  |  |  |  |  | little or no damage |  | 
8 | CN1c2nccnc2C(O)=C(c2c(F)ccc(F)c2Cl)S1(=O)=O [Compound D2] | 7 | 7 | 7 | 7 |  |  |  | 
9 | CC(C)C(=O)OC1=C(c2c(F)ccc(F)c2Cl)S(=O)(=O)N(C)c2nccnc21 [Compound C9] | 7 | 4 | 6 | 6 |  |  |  | 
10 | C#CCN1c2nccnc2C(O)=C(c2ccccc2[N+](=O)[O-])S1(=O)=O [Compound D40, 3-(2-nitro-phenyl)-2,2-dioxo-1-prop-2-ynyl-1,2-dihydro-2-λ-6-thia-1,5,8-triaza-naphthalen-4-ol] |  |  |  |  |  | little or no damage |  | 
11 | CN1c2nccnc2C(OC(=O)C(C)(C)C)=C(c2c(F)ccc(F)c2Cl)S1(=O)=O [Compound C4] | 7 | 5 | 6 | 8 |  |  |  | 
12 | CN1c2nccnc2C(OC(=O)C(C)(C)C)=C(c2ccc(Cl)cc2Cl)S1(=O)=O [Compound C2] | 3 | 0 | 4 | 6 |  |  |  | 
13 | CC(C)(C)C(=O)OC1=C(c2ccc(Cl)cc2Cl)S(=O)(=O)N(CC(F)F)c2nccnc21 [Compound C12, 2,2-dimethyl-propionic acid-3-(2,4-dichloro-phenyl)-1-(2,2-difluoroethyl)-2,2-dioxo-1,2-dihydro-2-λ-6-thia-1,5,8-triaza-naphthalen-4-yl ester] |  |  |  |  |  |  | 6 | 9
14 | CN1c2nccnc2C(OC(=O)C(C)(C)C)=C(c2ccc(Cl)c(Cl)c2)S1(=O)=O [Compound C8] | 2 | 7 | 0 | 0 |  |  |  | 
15 | CC(C)(C)C(=O)OC1=C(c2c(F)ccc(F)c2Cl)S(=O)(=O)Nc2nccnc21 [Compound B3, 2,2-dimethyl-propionic acid-3-(2-chloro-3,6-difluoro-phenyl)-2,2-dioxo-1,2-dihydro-2-λ-6-thia-1,5,8-triaza-naphthalen-4-yl ester] | 0 | 2 | 0 | 0 |  |  |  | 
16 | CCOC(=O)c1ccc(C(F)(F)F)nc1C1=C(O)c2nccnc2N(CCC(F)F)S1(=O)=O [Compound D58, 2-[1-(3,3-difluoro-propyl)-4-hydroxy-2,2-dioxo-1,2-dihydro-2-λ-6-thia-1,5,8-triaza-naphthalen-3-yl]-6-trifluoromethyl-nicotinic acid ethyl ester] |  |  |  |  |  | little or no damage |  | 
17 | CCN1c2nccnc2C(OC(=O)C(C)C)=C(c2ccc(Cl)cc2Cl)S1(=O)=O [Compound C6] | 0 | 7 | 8 | 8 |  |  |  | 
18 | CC(C)(C)C(=O)OC1=C(c2ccccc2[N+](=O)[O-])S(=O)(=O)N(CC(F)F)c2nccnc21 [Compound C66] |  |  |  |  |  | little or no damage |  | 
19 | CCN1c2nccnc2C(OC(=O)C(C)(C)C)=C(c2cccc(C(F)(F)F)c2)S1(=O)=O [Compound C14] |  |  |  |  |  | little or no damage |  | 
20 | CC(C)(C)C(=O)OC1=C(c2ccc(Cl)c(Cl)c2)S(=O)(=O)Nc2nccnc21 [Compound B4] |  |  |  |  | little or no damage |  |  | 
21 | CCN1c2nccnc2C(OC(=O)C(C)(C)C)=C(c2ccc(Cl)cc2Cl)S1(=O)=O [Compound C5] | 5 | 1 | 8 | 7 |  |  |  | 
22 | CN1c2nccnc2C(O)=C(c2ccc(Cl)cc2Cl)S1(=O)=O [Compound D1] | 0 | 0 | 7 | 8 |  |  |  | 
